Data as given in patent US6225322A, “Compounds useful for inhibition of farnesyl protein transferase” (Schering Corporation, priority 1998, dated 2001).

molecular target: farnesyl protein transferase (Homo sapiens, UniProt P49354+P49356); assay: FPT IC50 (inhibition of farnesyl protein transferase, in vitro enzyme assay); assay type: biochemical
Method: (§1) FPT IC50 (inhibition of farnesyl protein transferase, in vitro enzyme assay) and COS Cell IC50 (Cell-Based Assay) were determined following the assay procedures described in WO 95/10516, published Apr. 20, 1995. GGPT IC50 (inhibition of geranylgeranyl protein transferase, in vitro enzyme assay), Cell Mat Assay, and anti-tumor activity (in vivo anti-tumor studies) could be determined by the assay procedures described in WO 95/10516. The disclosure of WO 95/10516 is incorporated herein by reference thereto.

Which IC50 does the source give for `CCOC(=O)N1CCC(C2c3ncccc3CCc3cccnc32)CC1` [Example 6, ethyl 4-(6,11-dihydro-5H-cyclohepta[2,1-b:4,5-b']dipyridin-11-yl)-1-piperidinecarboxylate] here?
The IC50 was > 17000 nM.

Which IC50 does the source give for `O=C(Cc1cc[n+]([O-])cc1)N1CCC(C2c3ncccc3CCc3cc(Br)cnc32)CC1` (stereo not drawn) [Example 17, 4-(3-bromo-6,11-dihydro-5H-cyclohepta [2,1-b:4,5-b']dipyridin-11-yl)-1-(4-pyridinylacetyl) n1-oxide piperidine] here?
The IC50 was 290 nM.

With `O=C(Cc1cc[n+]([O-])cc1)N1CCC(C2c3ncccc3CCc3cccnc32)CC1` [Example 8, 4-(6,11-dihydro-5H-cyclohepta[2,1-b: 4,5-b']dipyridin-11-yl)-1-(4-pyridinylacetyl) n1-oxide piperidine] as the compound, how does the IC50 read?
The IC50 was > 1400 nM.

`Cc1cnc2c(c1)CCc1cccnc1C2C1CCN(C(=O)Cc2cc[n+]([O-])cc2)CC1` (stereo not drawn) [Example 18, 4-(3-methyl-6,11-dihydro-5H-cyclohepta [2,1-b:4,5-b']dipyridin-11-yl)-1-(4-pyridinylacetyl) n1-oxide piperidine] was tested. Which IC50 did it give?
Its IC50 is 160 nM.

How did the IC50 turn out when `O=C(Cc1cc[n+]([O-])cc1)N1CCC(C2c3ncc(Br)cc3CCc3cc(Br)cnc32)CC1` [Example 13, 4-(3,8-dibromo-6,11-dihydro-5H-cyclohepta [2,1-b:4,5-b']dipyridin-11-yl)-1-(4-pyridinylacetyl) n1-oxide piperidine] was run?
The IC50 was 28 nM.

tested on: COS Cell; assay: COS Cell IC50 (Cell-Based Assay)
Method: as §1

How did the IC50 turn out when `O=C(Cc1cc[n+]([O-])cc1)N1CCC(C2c3ncc(Br)cc3CCc3cc(Br)cnc32)CC1` [Example 13, 4-(3,8-dibromo-6,11-dihydro-5H-cyclohepta [2,1-b:4,5-b']dipyridin-11-yl)-1-(4-pyridinylacetyl) n1-oxide piperidine] was run?
The IC50 was 125 nM.
